Laboratory results reported in patent US20110034419A1, “Cardioprotective Drugs and Diagnostics for Assessing Risk of Cardiovascular Disease” (priority 2009, published 2011).

How the values were obtained:
[1] = tested on: endothelial cell monolayers (HUVECs); assay: Electrical Cell Substrate Impedance Sensing (ECIS) assay of transendothelial electrical resistance (TEER); assay type: cell-based, human; settings: for Inhibition of the TEER response to HDL / Inhibition of the TEER response to S1P: PTX 1 μg/ml, antagonists 10 μM; for Inhibition of the TEER response to HDL: HDL 1000 or 621 μg/ml; for Inhibition of the TEER response to S1P: S1P 833 nM or 250 nM
Experimental: Confluent endothelial monolayers were grown under serum-free conditions until a minimal TEER plateau had been reached. The cells were then incubated with S1P or HDL in the presence or absence of PTX (A and B) or S1P1 antagonists (C and D). In A and B, S1P was used at 833 nM, HDL at 1000 μg/ml (containing 400 nM S1P) and PTX at 1 μg/ml. In C and D, S1P was used at 250 nM, HDL at 621 μg/ml (containing 250 nM S1P), the S1P1 antagonist 857390 at 10 μM and the S1P1/S1P3 antagonist VPC23019 at 10 μM. As controls, monolayers were treated with BSA-containing serum free medium (SFM) plus or minus vehicle buffer. Each of the TEER tracings shown is an average of two replicate wells and representative of three independent experiments. Impedance values were normalized by dividing each value by the level of impedance measured just prior to the addition of effectors. […]
ECIS: Electrical cell substrate impedance sensing (ECIS) assays will be conducted essentially as described in (1). Briefly, 8W10E+ electrode arrays will be pre-coated with human fibronectin (Invitrogen, Carlsbad, Calif.) at 100 μg/ml in 0.15M NaCl, 0.01M Tris, pH 8.0. HUVECs in EGM-2 medium will be seeded into the wells at a density of 1×10^5 cells per well. Electrical resistance (impedance) will be measured every […] at a frequency of 15 kHz. For every 48 h of culture, 50% volume of medium will be replaced with fresh EGM-2. When the electrical resistance reaches a maximal plateau (−3 days) the medium will be replaced with serum-free endothelial basal medium (EBM; Lonza) containing 1× penicillin-streptomycin-glutamine (Invitrogen). Electrical resistance will be monitored until a minimal plateau is reached (˜24 h). Either HDL from CCHS subjects (depleted of albumin and apoB lipoproteins) or synthetic HDLs will be introduced into the culture medium by removing a volume corresponding to that of the HDL to be added. The maximum volume of each HDL added will not exceed 1/25 of the 400 μl volume of conditioned culture medium in each well. For experiments evaluating the effects of pertussis toxin (PTX), PTX (100 ng/ml) or the PTX buffer (50% glycerol with 50 mM Tris, 10 mM glycine, and 0.5M NaCl, pH 7.5) will be added to EBM during the final 12 h of serum starvation. S1P or HDL will then be added to the medium. Electrical resistance will be monitored through 5 h post addition of agents.

[2] = tested on: Erk1/2 activation in HUVECs; assay: Multiplex bead array assay of Erk1/2 phosphorylation; assay type: cell-based, human; settings: for Inhibition of HDL-induced activation of Erk1/2 / Inhibition of S1P-induced activation of Erk1/2: PTX 100 ng/ml 12 h, 3 min; for Inhibition of HDL-induced activation of Erk1/2: antagonists added 15 min before HDL (containing 200 nM S1P); for Inhibition of S1P-induced activation of Erk1/2: antagonists added 15 min before S1P (200 nM)
Experimental: (§1) The effect of S1P and HDL on activation of Erk1/2 (A-D) and Akt (E-H) in HUVECs was determined by multiplex bead array assay. In A-D, the values for the fold difference in Erk1/2 phosphorylation were derived from the level of phosphoErk1/2 fluorescence in S1P or HDL treated cells divided by the level of phosphoErk1/2 fluorescence in control cells. In E-G, the values for the fold increase in Akt phosphorylation were derived from the level of phosphoAkt fluorescence in cells treated with S1P or HDL divided by the level of phosphoAkt fluorescence measured in control cells. The data depicted in panels A, C, E and G is based on treating HUVECs for the indicated times with 833 nM S1P or 333 μg/ml HDL (containing 133 nM S1P). The data depicted in panels B, D, F and H is based on treating HUVECs with indicated concentrations of S1P or HDL for 3 min. The level of S1P in the 3-fold dilutions of HDL tested in panel H ranged from 12-337 nM. Data are shown from a representative experiment.
(§2) In A and B, pertussis toxin (PTX, 100 ng/ml) or the PTX buffer was added to endothelial cell basal medium (EBM) during the final 12 h of serum starvation. BSA, S1P (200 nM) or HDL (containing 200 nM S1P) were then added to the medium and allowed to incubate with the cells for 3 min. In C and D, the S1P1 antagonist 857390 or the S1P1/S1P3 antagonist or vehicle were added to the medium 15 min prior to addition of S1P or HDL and allowed to incubate with the cells for 3 min. The graphed values were derived from the level of phosphoErk1/2 or phosphoAkt fluorescence in S1P- or HDL-treated cells divided by the level of phosphoErk1/2 or phosphoAkt fluorescence in BSA treated cells. Data are shown from representative experiments, antagonists and inhibitor experiments were performed 2-4 times (e.g. PTX, n=3; S1P1 antagonist, n=4; S1P1/S1P3 antagonist, n=2). Each data point is an average from two independent wells.
(§3) Approach: A bead-based multiplex assay will be used to determine changes in phosphorylated Erk1/2, phosphorylated Akt, and total Erk and total Akt in endothelial cells in response to treatments with HDLs from dislipidemic subjects and synthetic HDLs containing defined amounts of S1P. These assays will be conducted essentially as described by (1). Briefly, HUVECs will be seeded into 24 well dishes (Corning) at 2×10^5 cells per well and grown for 18 h in endothelial growth medium-2 (EGM-2, Lonza). The medium will then be replaced with endothelial basal medium (EBM) containing 0.1% FBS and the cells grown for 24 h. The medium will then be supplemented with HDL samples (i.e., CCHS subject serum-derived HDL freed of albumin- and apoB-containing lipoproteins) or synthetic HDLs (containing defined amounts of S1P). As described above, this will be done by removing a volume of the conditioned culture medium corresponding to that of the HDL to be added. The cells will be extracted with Bio-Plex cell lysis buffer (Bio-Rad, Hercules, Calif.) and protein concentration determined by Bio-Rad DC Protein Assay (Bio-Rad). Levels of phospho-Erk1/2, total-Erk1/2 and phospho-Akt in the extracts will be determined by multiplex bead assay using kits (Bio-Rad) and a Bioplex-200 instrument (Bio-Rad).

Akt activation in HUVECs = assay: Multiplex bead array assay of Akt phosphorylation; assay type: cell-based, human; settings: PTX 100 ng/ml 12 h, 3 min; for Inhibition of HDL-induced activation of Akt: antagonists added 15 min before HDL (containing 200 nM S1P); for Inhibition of S1P-induced activation of Akt: antagonists added 15 min before S1P (200 nM)
Experimental: as §1, §2
as §3, with “The medium will then be replaced with endothelial basal medium (EBM) containing 0.1% FBS and the cells grown for 24 h. The medium will then be supplemented with HDL samples (i.e., CCHS subject serum-derived HDL freed of albumin- and apoB-containing lipoproteins) or synthetic HDLs (containing defined amounts of S1P). As described above, this will be done by removing a volume of the conditioned culture medium corresponding to that of the HDL to be added.” left out

dermal fibroblasts = settings: literature (Bu et al., 2006); cited from earlier work
[3] = tested on: endothelial cell monolayers (HUVECs); settings: literature (Schaphorst et al.; Xu et al.); cited from earlier work
lung capillary leakage = settings: mice, lipopolysaccharide treatment; literature (Peng et al.); cited from earlier work

CCCCCCCCc1cccc(NC(=O)[C@H](N)COP(=O)(O)O)c1 [VPC23019]
Inhibition of the TEER response to HDL [1]: inhibited | Inhibition of the TEER response to S1P [1]: inhibited | Inhibition of HDL-induced activation of Erk1/2 [2]: inhibited | Inhibition of S1P-induced activation of Erk1/2 [2]: inhibited | Inhibition of HDL-induced activation of Akt (Akt activation in HUVECs): inhibited | Inhibition of S1P-induced activation of Akt (Akt activation in HUVECs): inhibited

CCCCCCCCCCCCC/C=C/[C@@H](O)[C@@H](N)COP(=O)(O)O [S1P, sphingosine 1-phosphate]
Effect on transendothelial electrical resistance (TEER) ([1]; confluent endothelial monolayers in serum free medium, substance added alone): dose-dependent increase in TEER | Effect on Erk1/2 phosphorylation ([2]; 833 nM S1P or 333 μg/ml HDL, time course): transient increase in Erk1/2 phosphorylation | Dose dependence of Erk1/2 activation response ([2]; 3 min treatment): dose dependent | Activation of ERK1/2 in dermal fibroblasts (dermal fibroblasts): not reproduced | Induction of MMP1 expression in dermal fibroblasts (dermal fibroblasts): not reproduced | Effect on endothelial barrier activity (TEER) in cultured endothelial cells [3]: increase endothelial barrier activity | Effect on lung capillary leakage (lung capillary leakage): greatly reduces lung capillary leakage

CCCCCCCCCCCCCCC[C@@H](O)[C@@H](N)COP(=O)(O)O [DH-S1P, dihydro-S1P]
Activation of ERK1/2 in dermal fibroblasts (dermal fibroblasts): mediate activation ERK1/2 | Induction of MMP1 expression in dermal fibroblasts (dermal fibroblasts): induction of matrix metalloproteinase 1 (MMP1) expression

pertussis toxin [PTX]
Inhibition of the TEER response to HDL [1]: completely abrogated | Inhibition of the TEER response to S1P [1]: inhibited | Inhibition of HDL-induced activation of Erk1/2 [2]: inhibited | Inhibition of S1P-induced activation of Erk1/2 [2]: inhibited | Inhibition of HDL-induced activation of Akt (Akt activation in HUVECs): inhibited | Inhibition of S1P-induced activation of Akt (Akt activation in HUVECs): inhibited
